Experimental data: the supplement of paper PMC10307832

Assays:
Experiment in all cases: relative viability (nuclei count vs DMSO), 5 days (fraction); higher = more cells survive
[1] = compound: COc1ncc(-c2ccc3nccc(-c4ccnnc4)c3c2)cc1NS(=O)(=O)c1ccc(F)cc1F [Omipalisib] + CCNC(=O)c1noc(-c2cc(C(C)C)c(O)cc2O)c1-c1ccc(CN2CCOCC2)cc1 [Luminespib] (partner 0.01 µM)
Method in brief: (§1)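 Each reported value is a median over duplicate plates. It expresses relative viability: treated-well nuclei count divided by vehicle-well nuclei count. Lung cancer cell lines in 1536-well plates were dosed by pin tool a day after seeding, alone with one drug or with a fixed anchor-drug dose plus five library-drug doses (not always all listed) in √10 steps, and nuclei were counted after 5 days.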

[2] = compound: COc1ncc(-c2ccc3nccc(-c4ccnnc4)c3c2)cc1NS(=O)(=O)c1ccc(F)cc1F [Omipalisib] + Cc1nc(Nc2ncc(C(=O)Nc3c(C)cccc3Cl)s2)cc(N2CCN(CCO)CC2)n1 [Dasatinib] (partner 0.075 µM)
Method in brief: as §1

[3] = compound: COc1ncc(-c2ccc3nccc(-c4ccnnc4)c3c2)cc1NS(=O)(=O)c1ccc(F)cc1F [Omipalisib] + COc1cc2c(Oc3ccc(NC(=O)C4(C(=O)Nc5ccc(F)cc5)CC4)cc3F)ccnc2cc1OCCCN1CCOCC1 [Foretinib] (partner 0.25 µM)
Method in brief: as §1

[4] = compound: COc1ncc(-c2ccc3nccc(-c4ccnnc4)c3c2)cc1NS(=O)(=O)c1ccc(F)cc1F [Omipalisib] + Cc1cc(Nc2cc(N3CCN(C)CC3)nc(Sc3ccc(NC(=O)C4CC4)cc3)n2)n[nH]1 [Tozasertib] (partner 0.1 µM)
Method in brief: as §1

[5] = compound: COc1ncc(-c2ccc3nccc(-c4ccnnc4)c3c2)cc1NS(=O)(=O)c1ccc(F)cc1F [Omipalisib] + COc1cccc2cc(-c3nc([C@H]4CC[C@H](C(=O)O)CC4)n4ncnc(N)c34)[nH]c12 [OSI-027] (partner 0.5 µM)
Method in brief: as §1

[6] = compound: COc1ncc(-c2ccc3nccc(-c4ccnnc4)c3c2)cc1NS(=O)(=O)c1ccc(F)cc1F [Omipalisib] + N=C(N)NC(=N)NCCc1ccccc1 [Phenformin] (partner 250 µM)
Method in brief: as §1

[7] = compound: COc1ncc(-c2ccc3nccc(-c4ccnnc4)c3c2)cc1NS(=O)(=O)c1ccc(F)cc1F [Omipalisib]
Method in brief: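 Vehicle-anchored 1536-well plates of lung cancer cell lines, held overnight at 37 °C, were pinned with five library-drug doses (not always all listed) spaced by √10. No medium change followed over the next 5 days, after which the cells were fixed, permeabilised and Hoechst-stained together and imaged at 4×. Nuclei were counted with MetaXpress, and viability is treated-well nuclei over vehicle-well nuclei, taken as a median across plates. Plates passed with control CV below 25% and at least one doubling.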

[8] = compound: COc1ncc(-c2ccc3nccc(-c4ccnnc4)c3c2)cc1NS(=O)(=O)c1ccc(F)cc1F [Omipalisib] + C[C@]1(O)C[C@@H](c2nc(-c3ccc4ccc(-c5ccccc5)nc4c3)c3c(N)nccn32)C1 [Linsitinib] (partner 1 µM)
Method in brief: as §1

[9] = compound: COc1ncc(-c2ccc3nccc(-c4ccnnc4)c3c2)cc1NS(=O)(=O)c1ccc(F)cc1F [Omipalisib] + CS(=O)(=O)N1CCN(Cc2cc3nc(-c4cccc5[nH]ncc45)nc(N4CCOCC4)c3s2)CC1 [Pictilisib] (partner 1 µM)
Method in brief: as §1

[10] = compound: COc1ncc(-c2ccc3nccc(-c4ccnnc4)c3c2)cc1NS(=O)(=O)c1ccc(F)cc1F [Omipalisib] + Cc1nc(NC(=O)N2CCC[C@H]2C(N)=O)sc1-c1ccnc(C(C)(C)C(F)(F)F)c1 [Alpelisib] (partner 2 µM)
Method in brief: as §1

[11] = compound: COc1ncc(-c2ccc3nccc(-c4ccnnc4)c3c2)cc1NS(=O)(=O)c1ccc(F)cc1F [Omipalisib] + Nc1nc2[nH]cc(CCc3ccc(C(=O)N[C@@H](CCC(=O)O)C(=O)O)cc3)c2c(=O)[nH]1 [Pemetrexed] (partner 0.2 µM)
Method in brief: as §1

[12] = compound: COc1ncc(-c2ccc3nccc(-c4ccnnc4)c3c2)cc1NS(=O)(=O)c1ccc(F)cc1F [Omipalisib] + CC(C)C[C@H](NC(=O)[C@H](Cc1ccccc1)NC(=O)c1cnccn1)B(O)O [Bortezomib] (partner 0.002 µM)
Method in brief: as §1

[13] = compound: COc1ncc(-c2ccc3nccc(-c4ccnnc4)c3c2)cc1NS(=O)(=O)c1ccc(F)cc1F [Omipalisib] + CS(=O)(=O)CCNCc1ccc(-c2ccc3ncnc(Nc4ccc(OCc5cccc(F)c5)c(Cl)c4)c3c2)o1 [Lapatinib] (partner 2 µM)
Method in brief: as §1

[14] = compound: COc1ncc(-c2ccc3nccc(-c4ccnnc4)c3c2)cc1NS(=O)(=O)c1ccc(F)cc1F [Omipalisib] + C[C@@H](Oc1cc(-c2cnn(C3CCNCC3)c2)cnc1N)c1c(Cl)ccc(F)c1Cl [Crizotinib] (partner 1 µM)
Method in brief: as §1

NCI-H1623
relative viability ([1]; first compound 0.0003 µM): 0.399 | relative viability ([1]; first compound 0.003 µM): 0.287 | relative viability ([1]; first compound 0.03 µM): 0.292 | relative viability ([2]; first compound 0.0003 µM): 0.488 | relative viability ([2]; first compound 0.003 µM): 0.466 | relative viability ([2]; first compound 0.03 µM): 0.266 | relative viability ([3]; first compound 0.0003 µM): 0.76 | relative viability ([3]; first compound 0.003 µM): 0.727 | relative viability ([3]; first compound 0.03 µM): 0.316 | relative viability ([4]; first compound 0.0003 µM): 0.409 | relative viability ([4]; first compound 0.003 µM): 0.354 | relative viability ([4]; first compound 0.03 µM): 0.273 | relative viability ([5]; first compound 0.0003 µM): 0.398 | relative viability ([5]; first compound 0.003 µM): 0.338 | relative viability ([5]; first compound 0.03 µM): 0.294 | relative viability ([6]; first compound 0.0003 µM): 0.479 | relative viability ([6]; first compound 0.003 µM): 0.607 | relative viability ([6]; first compound 0.03 µM): 0.247 | relative viability ([7]; 0.0003 µM): 0.855 | relative viability ([7]; 0.003 µM): 0.553 | relative viability ([7]; 0.03 µM): 0.359

NCI-H1563
relative viability ([8]; first compound 0.0003 µM): 0.844 | relative viability ([8]; first compound 0.003 µM): 0.992 | relative viability ([8]; first compound 0.03 µM): 0.77 | relative viability ([1]; first compound 0.0003 µM): 0.557 | relative viability ([1]; first compound 0.003 µM): 0.515 | relative viability ([1]; first compound 0.03 µM): 0.445 | relative viability ([2]; first compound 0.0003 µM): 0.484 | relative viability ([2]; first compound 0.003 µM): 0.442 | relative viability ([2]; first compound 0.03 µM): 0.354 | relative viability ([3]; first compound 0.0003 µM): 0.841 | relative viability ([3]; first compound 0.003 µM): 0.806 | relative viability ([3]; first compound 0.03 µM): 0.585 | relative viability ([9]; first compound 0.0003 µM): 0.575 | relative viability ([9]; first compound 0.003 µM): 0.67 | relative viability ([9]; first compound 0.03 µM): 0.694 | relative viability ([10]; first compound 0.0003 µM): 0.756 | relative viability ([10]; first compound 0.003 µM): 0.841 | relative viability ([10]; first compound 0.03 µM): 0.587 | relative viability ([11]; first compound 0.0003 µM): 0.714 | relative viability ([11]; first compound 0.003 µM): 0.616 | relative viability ([11]; first compound 0.03 µM): 0.462 | relative viability ([12]; first compound 0.0003 µM): 0.756 | relative viability ([12]; first compound 0.003 µM): 0.667 | relative viability ([12]; first compound 0.03 µM): 0.7 | relative viability ([5]; first compound 0.0003 µM): 0.759 | relative viability ([5]; first compound 0.003 µM): 0.583 | relative viability ([5]; first compound 0.03 µM): 0.602 | relative viability ([13]; first compound 0.0003 µM): 0.747 | relative viability ([13]; first compound 0.003 µM): 0.848 | relative viability ([13]; first compound 0.03 µM): 0.747 | relative viability ([6]; first compound 0.0003 µM): 0.639 | relative viability ([6]; first compound 0.003 µM): 0.579 | relative viability ([6]; first compound 0.03 µM): 0.535 | relative viability ([14]; first compound 0.0003 µM): 0.698 | relative viability ([14]; first compound 0.003 µM): 0.796 | relative viability ([14]; first compound 0.03 µM): 0.609 | relative viability ([7]; 0.0003 µM): 0.87 | relative viability ([7]; 0.003 µM): 0.801 | relative viability ([7]; 0.03 µM): 0.577
